From patent US20100273876A1, “ANTIBACTERIAL FORMULATION COMPRISING A DIALKYL SULPHOSUCCINATE AND A CARBANILIDE ANTIBACTERIAL AGENT” (priority 2007, published 2010) come the findings set out here.

For experiment [1], the system named is P. acnes NCTC 737. Put plainly: Minimum inhibitory concentration (MIC) assay, liquid medium. In kind it is cell-based, Propionibacterium acnes. How it is done: (§1) The propionibacteria were cultured and maintained on Wilkins-Chalgren Anaerobe Medium (agar and broth) at pH 6.0; all cultures were incubated anaerobically at 37° C. for 72 hours.
(§2) This is a standard international method for quantitatively assessing the antimicrobial activity of a compound in a liquid medium. The method used a sterile 96-well microtitre plate, capable of holding about 200 μl of liquid per well. The wells contained liquid culture medium and ranges of decreasing concentrations of the relevant test compound in doubling dilutions (eg, 1000, 500, 250, 125 . . . μg/ml, etc. down to 0.49 μg/ml). The culture media were as described above.
(§3) The wells were inoculated with a liquid suspension of freshly grown micro-organism and incubated under the conditions described above. After incubation, the microtitre plate was examined visually (with the aid of a light box) for cloudiness in each well, which would indicate microbial growth. The MIC value was recorded as the lowest concentration of test compound required to inhibit microbial growth, ie, the lowest concentration for which the liquid in the well remained clear.
(§4) The assays included both negative (culture medium with no micro-organisms) and positive (culture medium plus diluting solvent plus micro-organism) controls.

In experiment [2] the test system is P. acnes NCTC 737. Put plainly: Minimum bactericidal concentration (MBC) assay. The experiment is classed as cell-based, Propionibacterium acnes. How it is done: The propionibacteria were cultured and maintained on Wilkins-Chalgren Anaerobe Medium (agar and broth) at pH 6.0; all cultures were incubated anaerobically at 37° C. for 72 hours. This assay, normally carried out after an MIC assay, determines the rnininiurn concentration of a compound that is lethal to the micro-organism being tested. […] These samples were then individually sub-cultured on antibiotic-free agar medium, under the incubation conditions described above. Following incubation they were examined visually for microbial growth.

The test system of experiment [3] is P. acnes NCTC 737. The experiment is described as follows: Disc diffusion / synergy disc diffusion assay ((S)DDA). The experiment is classed as cell-based, Propionibacterium acnes. As to conditions: for SDDA area increase / SDDA increase: 200 μg DOS salt + 200 μg TCC; for SDDA with TCC: 200 μg DOS salt + 200 μg TCC on one disc; for SDDA increase: vs greater single-compound zone; for DDA + salt: sodium chloride 100 mM; for DDA + lipid: triolein 1% v/v. The method, then: as §1
(§5) A sterile paper disc was impregnated with a sample of the test compound in a suitable solvent and 30 minutes allowed for the solvents to evaporate (where possible). The disc was then placed on an agar plate onto which the test micro-organism had been inoculated. The plate was then incubated under the conditions described above, following which it was examined visually for signs of microbial growth. If the test compound had antimicrobial activity, a circular zone of no growth would be obtained around the disc. The diameter of this zone of “inhibition” was measured using a ProtoCOL™ automated zone sizer (Synbiosis, Cambridge, UK). In general, a greater diameter and/or area of the zone of inhibition indicates a greater antimicrobial activity in the relevant test compound, although other factors such as test compound mobility through the agar gel may also influence the result.
(§6) Two test a compounds A and B were placed on a single paper disc and the above described DDA procedure repeated. An increase in diameter of the zone of inhibition, compared to the greater of the zone diameters for the two compounds individually, was taken to indicate potential antimicrobial synergy. In practical terms, an increase of greater than 5 mm could be treated as significant.
Both the DDA and the SDDA test may be carried out using an agar gel supplemented with lipid and/or salt to simulate some of the major components present in human skin and to assess whether these substances might reduce the antimicrobial activity observed for the test compound. Performance under these conditions can provide a more reliable indication of activity on topical application. The supplements used in Examples 1, 11, 12 and 13 below were lipid (either Tween™ 80 at 1% v/v (Example 1) or triolein at 1% v/v (Examples 11, 12 and 13) and sodium chloride (100 mM).

Experiment [4] concerns Por. gingivalis NCTC 11834. Put plainly: (S)DDA disc diffusion. The experiment is classed as cell-based, Porphyromonas gingivalis. The note with it: for SDDA with TCC: 200 μg DOS salt + 200 μg TCC on one disc; for DDA: 200 μg per disc. How it is done: (§7) The P. gingivalis strains were cultured and maintained on Wilkins-Chalgren Anaerobe Medium (agar and broth) at pH 7.0; all cultures were incubated anaerobically at 37° C. for 5-7 days.
as §5, §6
(§8) For the (S)DDA experiments; 200 μg of the DOS salts and/or the TCC were loaded onto each disc for Por. gingivalis experiments. For the Strep. mutans experiments, 200 μg of the TCC and 50 μg of DOSS were used on each disc. All the experiments were conducted in triplicate.
In general terms: A growth-free zone around the sample is the usual read-out of agar diffusion tests.

Experiment [5] deals with Strep. mutans ATCC 25175. The experiment is described as follows: (S)DDA disc diffusion. The experiment is classed as cell-based, Streptococcus mutans. As to conditions: 200 μg per disc. The method, then: (§9) The S. mutans was cultured and maintained on Wilkins-Chalgren Anaerobe Medium (agar and broth) at pH 7.0 supplemented with 1 g/L glucose; all cultures were incubated at 37° C. for 48 h in an atmosphere containing 5% CO2.
as §5, §6, §8

Experiment [6] has as its system Por. gingivalis NCTC 11834. The experiment is described as follows: MIC assay, liquid medium. In kind it is cell-based, Porphyromonas gingivalis. The method, then:
as §7, §2, §3, §4

In experiment [7] the test system is Por. gingivalis NCTC 11834. Put plainly: MBC assay. The experiment is classed as cell-based, Porphyromonas gingivalis. How it is done: The P. gingivalis strains were cultured and maintained on Wilkins-Chalgren Anaerobe Medium (agar and broth) at pH 7.0; all cultures were incubated anaerobically at 37° C. for 5-7 days. This assay, normally carried out after an MIC assay, determines the rnininiurn concentration of a compound that is lethal to the micro-organism being tested. […] These samples were then individually sub-cultured on antibiotic-free agar medium, under the incubation conditions described above. Following incubation they were examined visually for microbial growth.

The test system of experiment [8] is Strep. mutans ATCC 25175. The experiment is described as follows: MIC assay, liquid medium. The experiment is classed as cell-based, Streptococcus mutans. The method, then: as §9, §2, §3, §4
The test system of experiment [9] is Strep. mutans ATCC 25175. Put plainly: MBC assay. The experiment is classed as cell-based, Streptococcus mutans. The method, then:
The S. mutans was cultured and maintained on Wilkins-Chalgren Anaerobe Medium (agar and broth) at pH 7.0 supplemented with 1 g/L glucose; all cultures were incubated at 37° C. for 48 h in an atmosphere containing 5% CO2. This assay, normally carried out after an MIC assay, determines the rnininiurn concentration of a compound that is lethal to the micro-organism being tested. […] These samples were then individually sub-cultured on antibiotic-free agar medium, under the incubation conditions described above. Following incubation they were examined visually for microbial growth.

A further experiment relates to Por. gingivalis 381. Put plainly: Biofilm disruption assay on hydroxyapatite discs. In kind it is cell-based, Porphyromonas gingivalis. As to conditions: Por. gingivalis 381 biofilm, DOSS 0.5% (w/v), CHX 0.2% (w/v). The method, then:
(§10) This assay was designed to determine quantitatively the relative potency of a test compound to disrupt (effectively kill) biofilms formed by a test organism on hydroxyapatite (HA) discs.
(§11) Biofilms were formed on sterile dense ceramic HA discs 7 mm diameter x 1.8 mm thick (Clarkson Chromatography) by placing the discs in the appropriate liquid media (as described above) inoculated with the test organism (0.5×10^8 cfu/ml). The HA discs were then incubated at 37° C. for ˜48 h in a 5% CO2 atmosphere (for Strep. mutans ATCC 25175) or ˜96 h under anaerobic conditions (for Por. gingivalis 381). Following the incubation period the supernatant was removed from the wells containing the HA discs and the discs were washed×3 with fresh media to ensure all planktonic cells were removed. The HA discs were then transferred to sterile bijoux bottles containing 1 ml of phosphate buffered saline (PBS) plus test compound(s) at the required concentration. After a set time period (usually 2 and/or 5 min), the HA disc was transferred to another sterile bijoux containing 1 ml of fresh growth media. Adherent cells were then harvested by vigorous vortexing for 2 minutes. A sample was then taken, serially diluted 10-fold in fresh growth media and inoculated onto agar plates in triplicate. Untreated HA discs, and HA discs added to PBS containing only the solvents used to dissolve the test compound(s), acted as controls.
(§12) The plates were then incubated as described above and subsequently examined visually for growth. Colonies were counted at an appropriate serial dilution (5-50 individual colonies visible) with the aid of a colony counter. These measurements were then converted to numbers of colony forming units (cfu), using the formula: cfu/ml=number of colonies×serial dilution factor×100 (as only a 10 μl sample was taken).
(§13) These cfu values were then converted into log10 values and plotted graphically against time of sample removal.
(§14) At each time point, samples were assessed in triplicate; the final cfu/ml value was an average (mean) of the three readings.
(§15) Biofilm disruption assays, as described above, were carried out using DOSS as the test compound and chlorhexidine (CHX) as a positive control. For these experiments, the DOSS was tested at 0.5% w/v against Por. gingivalis and 1% w/v against Strep. mutans. The ahlorhexidine was tested at a concentration of 0.2% w/v against both micro-organisms. The DOSS was dissolved in ethanol and the chlorhexidine in distilled water. All the experiments were conducted in triplicate.

In experiment [10] the test system is Strep. mutans ATCC 25175. The experiment is described as follows: Biofilm disruption assay on hydroxyapatite discs. As to conditions: Strep. mutans ATCC 25175 biofilm, DOSS 1.0% (w/v), CHX 0.2% (w/v). In kind it is cell-based, Streptococcus mutans. The method, then: as §10, §11, §12, §13, §14, §15
Where [11] appears, read: 200 μg of each test compound per disc (Example 2).
Where [12] appears, read: 200 μg per disc, pH 6.0, single replicates.

In the case of `CCCCC(CC)COC(=O)CC(C(=O)OCC(CC)CCCC)S(=O)(=O)[O-].[K+]` (stereo not drawn) [DOS potassium salt], the figures for the MIC (against P. acnes NCTC 737 [1]; in experiment [6]; with Strep. mutans ATCC 25175 [8]) were 7.8 µg/mL, 3.9 µg/mL and 15.6 µg/mL, respectively. In addition, the MBC in the experiment on P. acnes NCTC 737 [2] worked out at 62.5 µg/mL; in experiment [7], 7.8 µg/mL; with Strep. mutans ATCC 25175 [9], 31.25 µg/mL. Moreover, the MIC/MBC ratio amounted to 0.125 in the experiment with P. acnes NCTC 737 [2], 0.5 in experiment [7] and 0.5 in the experiment with Strep. mutans ATCC 25175 [9]. The SDDA area increase was 99.37% in the experiment on P. acnes NCTC 737 [3] and 43.78% in [4]. For the same compound, the entries for the “SDDA with TCC” value (in the experiment with P. acnes NCTC 737 [3]; in experiment [4]) were 36.68 mm and 61.31 mm, respectively. The figures for the SDDA increase (with P. acnes NCTC 737 [3]; in experiment [4]) were 10.7 mm and 10.18 mm, respectively. The DDA with P. acnes NCTC 737 [3] (setting [11]) is 25.91 mm; with P. acnes NCTC 737 [3] (setting [12]), 46.57 mm; in experiment [4], 51.13 mm; in the experiment with Strep. mutans ATCC 25175 [5], 35.28 mm. Also, in the experiment with P. acnes NCTC 737 [3] (200 μg per disc, pH 6.0), the “DDA + salt” value is on record as 46.26 mm. In addition, the “DDA + lipid” value in the experiment on P. acnes NCTC 737 [3] (200 μg per disc, pH 6.0) was found to be 48.12 mm.

Consider `[H]/N=C(\N/C(=N/[H])NCCCCCCNC(=N)NC(=N)Nc1ccc(Cl)cc1)Nc1ccc(Cl)cc1` [CHX, chlorhexidine], for which the Viable cell counts came to 7.53 log10 cfu/ml in the experiment with Por. gingivalis 381 (0 min); 6.50 log10 cfu/ml with Por. gingivalis 381 (2 min); 6.76 log10 cfu/ml with Por. gingivalis 381 (5 min); 6.56 log10 cfu/ml with Strep. mutans ATCC 25175 [10] (0 min); 6.12 log10 cfu/ml in the experiment with Strep. mutans ATCC 25175 [10] (2 min); 5.99 log10 cfu/ml with Strep. mutans ATCC 25175 [10] (5 min).

Take `CCCCC(CC)COC(=O)CC(C(=O)OCC(CC)CCCC)S(=O)(=O)[O-].CCCCC(CC)COC(=O)CC(C(=O)OCC(CC)CCCC)S(=O)(=O)[O-].[Ca+2]` (stereo not drawn) [DOS calcium salt]: the MIC was determined as 15.6 µg/mL in the experiment with P. acnes NCTC 737 [1], 3.9 µg/mL in experiment [6] and 15.6 µg/mL with Strep. mutans ATCC 25175 [8]. Besides, the MBC in the experiment on P. acnes NCTC 737 [2] was >31.25 µg/mL; in experiment [7], 7.8 µg/mL; with Strep. mutans ATCC 25175 [9], 31.25 µg/mL. In addition, the MIC/MBC ratio in the experiment with P. acnes NCTC 737 [2] was <0.5; in [7] it was 0.5; with Strep. mutans ATCC 25175 [9], 0.5. Further, the SDDA area increase in the experiment with P. acnes NCTC 737 [3] is listed as 128.93%; in experiment [4], 38.64%. In addition, the “SDDA with TCC” value in the experiment with P. acnes NCTC 737 [3] was found to be 36.16 mm; in experiment [4] it was 61.31 mm. For the same compound, the SDDA increase in the experiment with P. acnes NCTC 737 [3] is on record as 12.26 mm; in experiment [4] it was 9.24 mm. Also, the DDA came out at 23.9 mm in the experiment on P. acnes NCTC 737 [3] (setting [11]), 44.71 mm with P. acnes NCTC 737 [3] (setting [12]), 52.07 mm in experiment [4] and 32.13 mm with Strep. mutans ATCC 25175 [5]. Also, in the experiment on P. acnes NCTC 737 [3] (200 μg per disc, pH 6.0), the “DDA + salt” value was 43.16 mm. In addition, in the experiment with P. acnes NCTC 737 [3] (200 μg per disc, pH 6.0), the “DDA + lipid” value is listed as 49.36 mm.

For orientation: MIC means the lowest concentration that inhibits growth of the organism. Higher therefore signals weaker potency. Broadly, the MBC is the smallest concentration meeting the test's criterion for killing.
